Experimental data taken from US20240417408A1, “SMALL MOLECULE INHIBITORS OF KRAS G12C MUTANT” (MERCK SHARP & DOHME CORP., priority 2021, published 2024).
pIC50: −log10 of the molar value.

What was measured:
[1] = test system: MIA PaCa-2 cells; assay: Test Example 3: growth inhibition activity on KRAS-G12C mutant cell line (MIA PaCa-2); type: cell-based; conditions: Homo sapiens, 72 h, MIA PaCa-2, 3-day culture, CellTiter-Glo 3D, read-out: CTX MiaPaCa IC50
Experimental: Test Example 3: Assay of Growth Inhibition Activity on KRAS-G12C Mutant Cell Line (MIA PaCa-2) (In Vitro)
MIA PaCa-2 cells (provided by Sumitomo Dainippon Pharma Co., Ltd.), which are a KRAS-G12C mutant human pancreas cancer cell line, were suspended in a 10% fetal bovine serum-containing RPMI1640 medium (manufactured by Fujifilm Wako Pure Chemical Corporation.). The cell suspension was seeded into each well of a 384-well U bottom microplate and cultured in an incubator containing 5% CO2 gas at 37° C. for 1 day. The compounds obtained in the Examples section were used as test compounds and were dissolved in DMSO, respectively, and each test compound was diluted with DMSO to give a concentration 500 times the final concentration. The resultant solution of the test compound in DMSO was diluted with the medium used for suspending cells and added to each well of the cell-culture plate to give a DMSO final concentration of 0.2%, followed by culture in an incubator containing 5% CO2 gas at 37° C. for another 3 days. The cell count after 3-day culture in the presence of the test compound was measured using CellTiter-Glo 3D Reagent (manufactured by Promega Corporation). To all cells were added with CellTiter-Glo 3D Reagent and mixed for 10 minutes. 30 minutes after mixing, luminescence was measured by a plate reader. The growth inhibition rate was calculated from the following equation, and the concentration of the test compound at which 50% inhibition was achieved (IC50 (nM)) was determined.
[formula] • T: the emission intensity in a well into which a test compound was added. • C: the emission intensity in a well into which a test compound was not added.

[2] = biological target: T1, Recombinant KRAS G12C mutant protein (amino acids 1-169, SEQ ID NO: 1) (Homo sapiens, UniProt P01116, G12C); assay: Test Example 1: inhibitory activity on KRAS G12C nucleotide (GDP-GTP) exchange reaction in vitro; type: biochemical; conditions: BODIPY FL GDP-bound KRAS G12C incubated with compound at 25° C. for 1 hour, then SOS1 and GMPPNP, read-out: GNE IC50
T1 construct: His6 (N); TEV protease site (ENLYFQG; named from own knowledge) (N); made in house; host or cells: E. coli
Experimental: Test Example 1: Evaluation of inhibitory activity of compounds on KRAS G12C nucleotide (GDP-GTP) exchange reaction in vitro
Recombinant KRAS G12C mutant protein (amino acids 1-169, SEQ ID NO: 1) and cleaved recombinant SOS1 (amino acids 564-1049, SEQ ID NO:2) proteins were expressed in E. coli and purified by affinity chromatography.
To prepare BODIPY FL GDP-bound KRAS G12C protein, 50 μM KRAS G12C protein was incubated with 0.5 mM BODIPY FL GDP in a loading buffer (20 mM Tris-HCl (pH 7.5), 50 mM NaCl, 1 mM DTT and 2.5 mM EDTA) for 1 hour on ice. After the incubation, MgCl2 was added to a final concentration of 10 mM, followed by incubation at room temperature for 30 minutes. The mixture was allowed to pass through a NAP-5 column to remove free nucleotides and purified BODIPY FL GDP-bound KRAS G12C protein was used for compound evaluation.
For the measurement of the inhibitory activity of compounds on GDP-GTP exchange rate of recombinant KRAS G12C, BODIPY FL GDP-bound KRAS G12C protein was incubated with various concentrations of compound in a reaction buffer (20 mM Tris-HCl (pH 7.5), 100 mM NaCl, 1 mM MgCl2, 2 mM DTT, 0.1% Tween 20) at 25° C. for 1 hour. After the incubation, recombinant SOS1 and Guanosine-5′-[(β,γ)-imido]triphosphate, Tetralithium salt (GMPPNP) (Jena Bioscience GmbH) were added and incubated at room temperature for 30 minutes to proceed SOS1-dependent GDP-GTP exchange reaction on KRAS G12C. Replacement of BODIPY FL GDP by GMPPNP was measured by calculating the ratio of fluorescence intensities of BODIPY FL before and after the exchange reaction. Inhibition % was calculated by setting the fluorescence ratio from the reaction without test compound (DMSO control) and the fluorescence ratio from the reaction without SOS1 and GMPPNP as 0% and 100% inhibition, respectively. IC50 values were calculated from dose titration curve using curve fitting by XLfit software (IDBS).

[3] = biological target: T2, interaction between KRAS G12C and cRAF-RBD (Homo sapiens, UniProt P01116, G12C); assay: Test Example 2: inhibitory activity on interaction between KRAS G12C and cRAF (Alpha technology); type: binding; conditions: GMPPNP-bound KRAS G12C incubated with compound at 25° C. for 1 hour, then cRAF-RBD
T2 construct: TEV protease site (ENLYFQG); made in house; host or cells: E. coli
Experimental: Test Example 2: Evaluation of Inhibitory Activity of Compounds on Interaction Between KRAS G12C and cRAF (In Vitro)
Interaction between recombinant KRAS G12C mutant protein (SEQ ID NO: 1) and cRAF RAS-binding domain (cRAF-RBD, amino acids 50-132, Jena Biosciences GmbH) was measured using Alpha technology (PerkinElmer Inc.).
Recombinant KRAS G12C protein with an N-terminal His-tag was expressed in E. coli and purified by affinity chromatography. To prepare GTP-bound form and GDP-bound form of KRAS G12C protein, 50 μM KRAS G12C protein was incubated with 1 mM GMPPNP (Jena Bioscience GmbH) and 1 mM GDP, respectively, in a loading buffer (20 mM Tris-HCl (pH 7.5), 50 mM NaCl, 1 mM DTT and 2.5 mM EDTA) for 1 hour on ice. After the incubation, MgCl2 was added to a final concentration of 10 mM, followed by incubation at room temperature for 30 minutes. The mixture was allowed to pass through a NAP-5 column to remove free nucleotides and purified, and the resultant nucleotide-bound KRAS G12C protein was used for compound evaluation.
For the measurement of the inhibitory activity of compounds on interaction between KRAS G12C and cRAF-RBD, GMPPNP-bound KRAS G12C protein was incubated with various concentrations of compound in a reaction buffer (20 mM Tris-HCl (pH 7.5), 100 mM NaCl, 1 mM MgCl2, 1 mM TCEP, 0.1% Tween 20) at 25° C. for 1 hour. After the incubation, recombinant cRAF-RBD and Alpha detection reagents were added and incubated at room temperature for 1.5 hours for binding. Interaction of KRAS G12C and cRAF-RBD was monitored by measuring Alpha signal. Inhibition % was calculated using the signal from the reaction without test compound (DMSO control) as 0% inhibition and the signal from the reaction using GDP-bound KRAS G12C in place of GMPPNP-bound KRAS G12C as 100% inhibition. IC50 values were calculated from dose titration curve using curve fitting by XLfit software (IDBS).

T2 sequence (P01116 with tags, fused parts or gaps isoform P01116-2 G12C): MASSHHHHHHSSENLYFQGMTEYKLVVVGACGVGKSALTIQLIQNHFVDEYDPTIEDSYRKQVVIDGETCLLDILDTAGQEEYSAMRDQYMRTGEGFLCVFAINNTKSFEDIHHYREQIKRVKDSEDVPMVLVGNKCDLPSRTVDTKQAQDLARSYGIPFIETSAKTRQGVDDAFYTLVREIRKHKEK
T1 sequence (P01116 with tags, fused parts or gaps isoform P01116-2 G12C): as above

Row | SMILES | pIC50 [1] | pIC50 [2] | pIC50 [3]
1 | C#Cc1cccc2cc(O)cc([C@@H]3Cc4nc(OCC5(CN6CCOCC6)CC5)nc(N5CCN(C(=O)/C=C/CN6CCC(OC)CC6)[C@@H](CC#N)C5)c4CO3)c12 [Example 1, 2-((S)-4-((S)-7-(8-ethynyl-3-hydroxynaphthalen-1-yl)-2-((1-(morpholinomethyl)cyclopropyl)methoxy)-7,8-dihydro-5H-pyrano[4,3-d]pyrimidin-4-yl)-1-((E)-4-(4-methoxypiperidin-1-yl)but-2-enoyl)piperazin-2-yl)acetonitrile] | 8.15 | 8.99 | 7.59
2 | CO[C@H]1CC[C@H](NC/C=C/C(=O)N2CCN(c3nc(OC[C@@H]4CCCN4C)nc4c3COC(c3cccc5ccccc35)C4)C[C@@H]2CC#N)CC1 (stereo partly drawn) [Example 2, 2-((2S)-1-((E)-4-(((1r,4S)-4-methoxycyclohexyl)amino)-but-2-enoyl)-4-(2-(((S)-1-methylpyrrolidin-2-yl)meth-oxy)-7-(naphthalen-1-yl)-7,8-dihydro-5H-pyrano[4,3-d]pyrimidin-4-yl)piperazin-2-yl)acetonitrile] | 6.95 | 8.45 | 4.36
3 | CN1CCC[C@H]1COc1nc2c(c(N3CCN(C(=O)/C=C/CNC4CC5CCC(C4)O5)[C@@H](CC#N)C3)n1)COC(c1cccc3ccccc13)C2 (stereo partly drawn) [Example 3, 2-((2S)-1-((E)-4-((8-oxa-bicyclo[3.2.1]octan-3-yl)-amino)but-2-enoyl)-4-(2-(((S)-1-methylpyrrolidin-2-yl)methoxy)-7-(naphthalen-1-yl)-7,8-dihydro-5H-pyrano[4,3-d]pyrimidin-4-yl)piperazin-2-yl)acetonitrile] | 7.00 | 8.28 | 4.94
4 | COC1CCN(C/C=C/C(=O)N2CCN(c3nc(OC[C@@H]4CCCN4C)nc4c3COC(c3cccc5ccccc35)C4)C[C@@H]2CC#N)CC1 (stereo partly drawn) [Example 4, 2-((2S)-1-((E)-4-(4-methoxy-piperidin-1-yl)but-2-enoyl)-4-(2-(((S)-1-methylpyrroli-din-2-yl)methoxy)-7-(naph-thalen-1-yl)-7,8-dihydro-5H-pyrano[4,3-d]pyrimidin-4-yl)piperazin-2-yl)acetonitrile] | 6.48 | 8.14 | 5.02
5 | COC1CCN(C/C=C/C(=O)N2CCN(c3nc(OC[C@@H]4CCCN4C)nc4c3COC(c3cccc5cccc(Br)c35)C4)C[C@@H]2CC#N)CC1 (stereo partly drawn) [Example 5, 2-((2S)-4-(7-(8-bromonaph-thalen-1-yl)-2-(((S)-1-meth-ylpyrrolidin-2-yl)methoxy)-7,8-dihydro-5H-pyrano[4,3-d]pyrimidin-4-yl)-1-((E)-4-(4-methoxypiperidin-1-yl)-but-2-enoyl)piperazin-2-yl)-acetonitrile] | 6.75 | 8.58 | 5.55
6 | C#Cc1cccc2cccc(C3Cc4nc(OCC5(CN6CCOCC6)CC5)nc(N5CCN(C(=O)/C=C/CN6CCC(OC)CC6)[C@@H](CC#N)C5)c4CO3)c12 (stereo partly drawn) [Example 6, 2-((2S)-4-(7-(8-ethynylnaph-thalen-1-yl)-2-((1-(morpho-linomethyl)cyclopropyl)-methoxy)-7,8-dihydro-5H-pyrano[4,3-d]pyrimidin-4-yl)-1-((E)-4-(4-methoxy-piperidin-1-yl)but-2-enoyl)-piperazin-2-yl)acetonitrile] | 6.57 | 7.81 | 5.90
7 | C#Cc1cccc2cc(O)cc([C@@H]3Cc4nc(OC[C@@H]5CCCN5C)nc(N5CCN(C(=O)/C=C/CN6CCC(OC)CC6)[C@@H](CC#N)C5)c4CO3)c12 [Example 7, 2-((S)-4-((S)-7-(8-ethynyl-3-hydroxynaphthalen-1-yl)-2-(((S)-1-methylpyrrolidin-2-yl)methoxy)-7,8-dihydro-5H-pyrano[4,3-d]pyrimidin-4-yl)-1-((E)-4-(4-methoxy-piperidin-1-yl)but-2-enoyl)-piperazin-2-yl)acetonitrile] | 8.36 | 9.06 | 7.30
8 | C#Cc1cccc2cc(O)cc([C@@H]3Cc4nc(OC[C@@H]5CCCN5C)nc(N5CCN(C(=O)/C=C/CN[C@H]6CC[C@H](OC)CC6)[C@@H](CC#N)C5)c4CO3)c12 [Example 8, 2-((S)-4-((S)-7-(8-ethynyl-3-hydroxynaphthalen-1-yl)-2-(((S)-1-methylpyrrolidin-2-yl)methoxy)-7,8-dihydro-5H-pyrano[4,3-d]pyrimidin-4-yl)-1-((E)-4-(((1r,4S)-4-methoxycyclohexyl)amino)-but-2-enoyl)piperazin-2-yl)-acetonitrile] | 8.19 | 9.27 | 7.19
9 | C#Cc1cccc2cc(O)cc(C3Cc4nc(OC[C@@H]5CCCN5C)nc(N5CCN(C(=O)/C=C/CN[C@H]6CC[C@H](OC)CC6)[C@@H](CC#N)C5)c4CO3)c12 (stereo partly drawn) [Example 9, 2-((2S)-4-(7-(8-ethynyl-3-hydroxynaphthalen-1-yl)-2-(((S)-1-methylpyrrolidin-2-yl)methoxy)-7,8-dihydro-5H-pyrano[4,3-d]pyrimidin-4-yl)-1-((E)-4-(((1r,4S)-4-methoxycyclohexyl)amino)-but-2-enoyl)piperazin-2-yl)-acetonitrile] | 7.39 | 8.90 | 6.88
10 | COC1CCN(C/C=C/C(=O)N2CCN(c3nc(OC[C@@H]4CCCN4C)nc4c3CO[C@H](c3cc(O)cc5cccc(Br)c35)C4)C[C@@H]2CC#N)CC1 [Example 10, 2-((S)-4-((S)-7-(8-bromo-3-hydroxynaphthalen-1-yl)-2-(((S)-1-methylpyrrolidin-2-yl)methoxy)-7,8-dihydro-5H-pyrano[4,3-d]pyrimidin-4-yl)-1-((E)-4-(4-methoxy-piperidin-1-yl)but-2-enoyl)-piperazin-2-yl)acetonitrile] | 7.99 | 9.14 | 6.97
